Patent publication US8110545B2, “Non-proteolysable oligopeptides that inhibit glycoprotein GP41 of the aids virus” (priority 2005, dated 2012)

Target: T1, gp41 of HIV-1 (Human immunodeficiency virus type 1 group M subtype B, UniProt P03375)
T1 construct: cell-cell fusion induced by gp41 of HIV-1 expressed in CHO cells; expressed in transfected cells; host or cells: CHO cells (effector), co-cultured with CD4-expressing HeLa cells (target)
Format: cell-based, HIV-1 (BH10 isolate)
Settings: 20 nM T-20, positive inhibition control, 37° C., 16 hours
Protocol: The effect has been measured as the inhibition of cell-cell fusion induced by gp41 of HIV-1 expressed in CHO cells, which takes place when they are mixed with CD4 receptor-expressing HeLa cells (BH10 isolate: Gene Bank access number M15654). The oligopeptide concentration was 5 μM and the temperature was 37° C. Incubation in the cell culture medium (GMEM-S supplemented with 1 mM sodium pyruvate and 0.4 mM methionine sulfoximine) was performed for 16 hours. The bars correspond to the number of nuclei in syncytial plates (fused cells with more than 4 nuclei) per field after this time. The means of 4 individual measurements plus the standard deviations are shown.
As a positive inhibition control, cells treated with 20 nM of T-20 (enfuvirtide) are shown. The sample, in the sole presence of gqidev, was processed following the protocol described in the preceding figure.
The lines represent adjustments to hyperbolic-type functions. The assay, in the presence of increasing quantities of oligopeptides, was performed and quantified in accordance with the description of FIG. 3. […]
It was added, at a concentration of 5 μM (micromolar), to the cell culture medium (GMEM-S supplemented with 1 mM sodium pyruvate and 0.4 mM methionine sulfoximine). […] The activity of gp41 is detected by the formation of multi-nucleated cells (CTL panel) produced by the fusion of the plasma membranes.

T1 sequence (P03375 512-856): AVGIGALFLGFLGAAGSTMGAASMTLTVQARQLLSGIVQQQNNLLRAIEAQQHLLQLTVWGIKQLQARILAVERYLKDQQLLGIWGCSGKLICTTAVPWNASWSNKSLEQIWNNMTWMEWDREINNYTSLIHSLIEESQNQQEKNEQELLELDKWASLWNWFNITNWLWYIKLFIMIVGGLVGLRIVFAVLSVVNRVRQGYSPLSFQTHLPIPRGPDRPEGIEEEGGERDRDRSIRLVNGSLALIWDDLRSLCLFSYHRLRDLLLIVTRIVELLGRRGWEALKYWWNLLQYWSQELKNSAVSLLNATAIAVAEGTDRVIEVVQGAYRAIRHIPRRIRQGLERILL

Question: Which “inhibitory effect on gp41 activity (cell-cell fusion, formation of syncytia)” value does the source give for enfuvirtide here?
Answer: comparable inhibition of gp41
